# Data as given in patent US20260069693A1, “UROLITHINS AND T-CELL MEDIATED IMMUNE RESPONSE” (priority 2022, published 2026).
# Tested on: APTK-s.c. tumors
# Experiment: subcutaneous APTK tumors, UA-supplemented diet
# Assay type: in vivo, C57BL/6 mice
# Description: Tumors were minced and digested with Tumor & Tissue Dissociation Reagent (BD Horizon) for 30 min. The remaining organ pieces were filtered through a 70 μm cell strainer. Cells were then washed with PBS 1% BSA and 2 mM EDTA. Immune cells were enriched on a 30%/40%/75% Percoll gradient after a 1700 rpm 17 min centrifugation. Then, tumor immune filtrates or activated T cells were stained with Fixable Viability Dye-eF780 (65-0865-14; eBioscience), αCD45-FITC (30-F11; 11-0451-85; eBioscience), αCD11b-BV650 (M1/70; 56340; BD) α-CD11C-BV785 (HL3; 563735; BD), αLy6G-BV605 (53-6.7; 563005; BD), αLy6C-AF700 (HK1.4; 128024; Biolegend), αF4/80-PE (BM8; 12-4801-82, eBioscience), αPD-L1-PECy7 (MIH5; 25-5982-80, eBioscience); or with Fixable Viability Dye-eF780 (ebioscience), αCD45-BV786 (30-F11; 564225; BD), αCD4-BUV496 (GK1.5; 564667; BD), αCD8-BV605 (100744; Biolegend), αPD1-APC (J43; 17-9985-82; eBioscience), αTIM-3-PECy7 (RMT3-23; 119715; Biolegend), αCTLA4-PE (UC10-4B9; 106305; Biolegend) and αLag3-BV421 (C9B7W; 125221, Biolegend); or with Fixable Viability Dye-eF780 (eBioscience), αCD4-FITC (H129.19; 553650; BD), αCD8-APC (53-6.7; 17-0081-83; eBioscience), αCD44-AF400 (IM7; 103026; Biolegend), αCD62L-BV785 (MEL-14; 104440; Biolegend), αSca-1-PerCP-Cy5.5 (D7; 45-5981-82; eBioscience), αCD95-PE (Jo2; 554258; BD); or with Fixable Viability Dye-eF780 (eBioscience), αCD8-BV650 (53-6.7; 563234; BD), αCD4-BUV496 (GK1.5; 564667; BD), αCD127-APC (A7R34; 17-1271-82; eBioscience), αCD95-FITC (SA367H8; 152605; Biolegend), αCD44-AF400 (IM7; 103026; Biolegend), αCD62L-BV785 (MEL-14; 104440; Biolegend), αSca-1-PerCP-Cy5.5 (D7; 45-5981-82; eBioscience) followed by intracellular staining of αTCF1-PE (S33-966; 564217; BD), or PGC-1α (sc-518025; D-5; santa cruz), or αCyclinD1 (MA5-28534, DCS-6; Invitrogen) with transcription factor buffer set kit (BD Biosciences). To study cytokine expression, tumor immune infiltrates were stimulated ex vivo with 20 ng/ml PMA and 1 μg/ml Ionomycin (Sigma) for 3 h in T cell activation medium with Brefeldin A (Biolegend).
# [1] = restimulated with PMA/ionomycin ex vivo
smiles,measurement,setting,value
"O=c1oc2cc(O)ccc2c2ccc(O)cc12 [UA, Urolithin A]",mitochondrial content in TIL of APTK tumors,"CD8+ TIL, UA vs control diet",increased
same,CD4+ TSCM in APTK-induced tumors,UA-containing vs control diet,no change
same,TCF1 expression in tumor infiltrating CD8+ T cells,UA-containing vs control diet,increased expression
same,"dendritic cells (DCS), TAMs, or MDSC subsets in TME",UA-containing vs control diet,no change
same,CD8+CD44loCD62LhiSca1hi T cells in APTK-induced tumors,"UA-containing vs control diet, CD8+ TIL",marked increase
same,exhaustion marker CTLA-4 in CD8+ T cells,"UA-fed mice, CD8+ TIL",reduction
same,exhaustion marker PD-1 in CD8+ T cells,"UA-fed mice, CD8+ TIL",reduction
same,exhaustion marker Tim3 in CD8+ T cells,"UA-fed mice, CD8+ TIL",reduction
same,CD8+ T cell infiltration in tumors,UA-supplemented diet vs control food,enhanced
same,induction of IFNg in tumor infiltrating CD8+ T cells,[1],stronger induction
same,induction of TNFa in tumor infiltrating CD8+ T cells,[1],stronger induction
